Assay results from patent US8216580B2, “Sulfatases and methods of use thereof” (The Regents of the University of California, priority 2000, dated 2012).

Key:
[1] = system: chick chorioallantoic membrane (CAM); test: Chick chorioallantoic membrane (CAM) angiogenesis assay; format: in vivo; conditions: 5×10^6 stably transfected CHO cells on CAM of 9 day embryos, 72 hrs; compared to CHO-Sulf-1 or empty vector clone
Experimental: Sulf-2 functions as a heparan sulfate degrading enzyme (HSDE) during tumor angiogenesis by mobilizing angiogenic factors from sequestration with HSPGs We employed the chick chorioallantoic membrane (CAM) assay, a standard angiogenesis assay. CHO cells were stably transfected with HSulf-1, HSulf-2, or the empty vector and clones were isolated. Single clones of each type were implanted on the surface of the CAM of 9 day embryos. After 72 hrs, the number of new blood vessel branches was determined under a dissecting scope.
FIG. 17. Pro-angiogenic activity of HSulf-2. 5×10^6 CHO cells were implanted on the CAM of 9-day chick embryos. The CHO cells were clones that were stably transfected with either the empty vector (clone V1), HSulf-1 (clone 9) or HSulf-2 (clone 18). After 72 hrs of further incubation, the number of blood vessel branches was counted under a dissecting microscope. 6 eggs were treated with each type of CHO cell. Means and standard errors of the means are indicated.

Wnt signaling = test: TCF-luciferase (TOPFlash/FOPFlash) Wnt reporter assay in HEK 293 cells co-cultured with Wnt-expressing 3T3 fibroblasts; format: cell-based, human; conditions: stably transfected HEK 293 cells co-cultured with Wnt1 or Wnt4 expressing 3T3 fibroblasts
Experimental: Cells were plated in 24 well plates and transfected with either 0.3 μg TOPFlash or FOPFlash and 0.01 μg Renilla control plasmid (Promega) using Fugene (Roche) according to the manufacturer's procedure. After 48 hours cells were lysed and analyzed utilizing the Dual Luciferase Reporter Assay system (Promega). Luciferase activity was normalized to control Renilla activity.
To assay HSulf influence on Wnt signaling in HEK 293 cells, HEK 293 cells were transfected with TOP/FOPFlash and Renilla control plasmid. 24 hours later the medium was changed, and Wnt1-transfected 3T3 […] fibroblasts were added. 24 hours later, Luciferase activity was measured, as described above.
Dhoot et al. (2001) supra; Ai et al. (2003) J Cell Biol 162:341-351. In order to determine if the human Sulfs affect Wnt signaling, the effect of HSulf-1 and -2, when overexpressed in a heterologous expression system on Wnt signaling, was analyzed. For this purpose, HEK 293 cells stably transfected with either HSulf-1 (HS1) or HSulf-2 (HS2) were co-cultured with Wnt1 or Wnt4 expressing 3T3 fibroblasts. Wnt activity was measured by utilizing a quantitative TCF-luciferase reporter gene (FOPFlash/TOPFlash system). van de Wetering et al. (1997) Cell 88:789-799.

## HSulf-2: Human SULF2, an 870 amino acid sulfatase protein, SEQ ID NO:06; expressed with C-terminal Myc-His tag
[1]
  number of new blood vessel branches: dramatic response
Wnt signaling
  increase of Wnt activity: two-fold
